# Patent US9505763B2, “Cancer treatment using BMP inhibitor” (Vanderbilt University, priority 2011, dated 2016)
# Entries after “also recorded” stand apart in the source; their conditions may differ.
# Assays:
# [1] = molecular target: T1, constitutively active alk3 (ca-alk3) (Homo sapiens, UniProt P36894, Q233D); test: BRE-luciferase with constitutively active alk3 in H1299 cells; format: cell-based; conditions: 1 μM antagonist
# T1 construct: expressed in transfected cells; host or cells: H1299
# T1 sequence (P36894 24-532 Q233D): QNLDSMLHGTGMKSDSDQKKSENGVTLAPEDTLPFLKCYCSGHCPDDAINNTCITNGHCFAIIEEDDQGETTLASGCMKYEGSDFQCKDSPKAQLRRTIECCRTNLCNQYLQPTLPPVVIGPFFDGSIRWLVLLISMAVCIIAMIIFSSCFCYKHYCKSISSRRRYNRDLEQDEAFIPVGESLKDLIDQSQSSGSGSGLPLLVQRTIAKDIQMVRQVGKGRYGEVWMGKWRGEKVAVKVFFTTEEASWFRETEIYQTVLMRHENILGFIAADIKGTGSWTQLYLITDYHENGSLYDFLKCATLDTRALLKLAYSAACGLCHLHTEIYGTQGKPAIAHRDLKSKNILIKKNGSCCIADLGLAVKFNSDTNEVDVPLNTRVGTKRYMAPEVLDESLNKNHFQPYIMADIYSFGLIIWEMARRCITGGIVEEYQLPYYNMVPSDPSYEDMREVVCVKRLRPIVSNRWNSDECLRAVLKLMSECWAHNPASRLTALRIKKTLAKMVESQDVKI
# Description: (§1) To assess the effects of antagonists on a specific type I BMP receptor, 2 μg of constitutively active ca-alk3 and ca-alk6 expression vectors were co-transfected with the BRE-luciferase reporter into H1299 cells with Nucleofector II. Control cells were co-transfected with the pcDNA3 expression vector. After 48 hours the cells were treated with DMSO or a BMP receptor antagonist for 48 hours and luminescence was measured.
# VEGF II = VEGF II (Homo sapiens, UniProt P35968); conditions: compared with Dorsomorphin and LDN; cited from earlier work
# Chain of VEGF II (P35968 20-1356): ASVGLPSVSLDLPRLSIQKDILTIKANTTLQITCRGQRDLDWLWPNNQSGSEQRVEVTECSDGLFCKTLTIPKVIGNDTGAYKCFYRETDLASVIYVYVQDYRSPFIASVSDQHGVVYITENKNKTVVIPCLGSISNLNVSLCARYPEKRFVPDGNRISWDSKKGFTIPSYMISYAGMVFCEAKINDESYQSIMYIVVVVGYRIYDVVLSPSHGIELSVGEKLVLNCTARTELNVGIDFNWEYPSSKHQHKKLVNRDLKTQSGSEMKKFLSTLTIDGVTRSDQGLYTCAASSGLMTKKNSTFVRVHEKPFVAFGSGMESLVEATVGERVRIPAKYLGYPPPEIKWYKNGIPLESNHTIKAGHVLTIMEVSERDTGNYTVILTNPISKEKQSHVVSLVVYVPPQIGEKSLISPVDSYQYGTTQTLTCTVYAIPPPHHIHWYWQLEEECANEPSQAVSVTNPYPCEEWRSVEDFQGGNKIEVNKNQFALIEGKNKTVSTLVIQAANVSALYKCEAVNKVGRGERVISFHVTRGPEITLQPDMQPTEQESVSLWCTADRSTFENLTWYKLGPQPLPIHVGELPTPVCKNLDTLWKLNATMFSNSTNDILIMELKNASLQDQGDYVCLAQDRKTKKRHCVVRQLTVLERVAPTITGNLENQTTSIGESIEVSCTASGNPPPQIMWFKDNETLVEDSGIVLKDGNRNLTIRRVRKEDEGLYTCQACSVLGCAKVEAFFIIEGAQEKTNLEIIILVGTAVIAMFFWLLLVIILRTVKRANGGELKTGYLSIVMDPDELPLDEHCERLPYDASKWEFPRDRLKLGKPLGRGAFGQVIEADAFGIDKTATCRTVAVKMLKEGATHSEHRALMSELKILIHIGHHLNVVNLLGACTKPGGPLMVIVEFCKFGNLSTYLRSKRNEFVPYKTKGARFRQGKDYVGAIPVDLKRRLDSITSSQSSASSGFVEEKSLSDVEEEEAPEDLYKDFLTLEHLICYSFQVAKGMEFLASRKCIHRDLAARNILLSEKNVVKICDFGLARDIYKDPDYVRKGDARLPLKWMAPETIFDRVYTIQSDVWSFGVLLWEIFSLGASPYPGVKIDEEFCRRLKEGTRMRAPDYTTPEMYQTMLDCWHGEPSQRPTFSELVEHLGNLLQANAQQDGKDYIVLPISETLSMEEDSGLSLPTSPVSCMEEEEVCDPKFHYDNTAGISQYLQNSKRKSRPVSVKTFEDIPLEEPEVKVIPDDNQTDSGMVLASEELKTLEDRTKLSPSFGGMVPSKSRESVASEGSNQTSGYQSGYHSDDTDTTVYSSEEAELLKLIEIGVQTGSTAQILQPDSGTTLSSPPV
# A549 cells = test: Cell counts after 7 days; format: cell-based; conditions: DMEM 5% FCS, 10 μM Dorsomorphin or 1 μM DMH1, DMH2, LDN
# Description: (§2) Cell Counts. A549 and H1299 cells were plated into 6 well plates with 100,000 cells per well. Cells were treated with DMSO or a BMP receptor antagonist for 7 days. The cells were detached with trypsin, stained with trypan blue, and the number of live cells counted using a hemacytometer.
# H1299 cells [2] = test: Cell counts after 7 days; format: cell-based
# Description: as §2
# Id1 and Id3 protein = test: Western blot for Id1 and Id3; format: cell-based
# Description: (§3) Western Blot Analysis. Total cellular protein was prepared using RIPA buffer containing a protease inhibitor cocktail and protein concentration was measured using the BCA assay as described. In brief, protein was analyzed by SDS-PAGE, transferred to nitrocellulose (Schleicher and Schuell, Keene, N.H.). After blocking, the blots were incubated overnight at 4° C. with the appropriate primary antibody in Tris-buffered saline with 1% Tween (TBST) and 5% non-fat milk. Secondary antibodies were applied for 1 hour at room temperature. Specific proteins were detected using the enhanced chemiluminescence system (Amersham, Arlington Heights, Ill.). The primary antibodies that were used were rabbit monoclonal anti-pSmad 1/5/8 (Cell signaling Technology, Danvers Mass.) rabbit anti-actin, an affinity isolated antigen specific antibody (Sigma, Saint Louis, Mo.), rabbit monoclonal anti-Id1 and rabbit monoclonal anti-Id3 (Calbioreagents, San Mateo, Calif.).
# H1299 cells [3] = test: BrdU incorporation assay; format: cell-based; conditions: 1 μM or 5 μM
# Description: BrdU Assay. Thirty-thousand H1299 cells were plated into 96 well plates. The next day the cells were treated with 1 μM DMSO, 5 μM DMSO, 1 μM DMH2, or 5 μM DMH2 for 24 and 48 hours. BrdU incorporation was measured using the Cell Proliferation ELISA, BrdU colorimetric kit as per manufacture's instruction (Roche, Indianapolis, […]). Cells were incubated with BrdU labeling solution for 2 hours, fixed/denatured, and BrdU located with a peroxidase-conjugated anti-BrdU antibody. Knockdown of all type I BMP receptors were performed in the H1299 cells by transfecting siRNA for alk2, alk3, and alk6 or control siRNA. Three days after transfection BrdU incorporation was determined. Studies were performed 4 times in triplicate.
# Smad 1/5/8 activity = test: BRE-luciferase reporter assay; format: cell-based; conditions: H1299 cells; 10 μM Dorsomorphin or 1 μM DMH1, DMH2, LDN; 48 hours; vs DMSO
# Description: Luciferase Assays. 10^6 H1299 cells were transfected with 2 μg of BRE-luciferace plasmid using a Nucleofector II. […] Cells were lysed with luciferase lysis buffer (Promega). Samples were added to luciferase assay substrate (Promega) and luminsescence measured by the TD-20/20 Luminometer (Turner Designs/Turner BioSystems, Sunnyvale, Calif.). Control samples included luciferase assay substrate alone and luciferase assay substrate plus 1× reporter lysis buffer.
# [4] = system: phosphorylated Smad 1/5/8; test: Western blot for phosphorylated Smad 1/5/8; format: cell-based
# Description: as §3
# [5] = system: constitutively active alk6 (ca-alk6); test: BRE-luciferase with constitutively active alk6 in H1299 cells; format: cell-based; conditions: 1 μM antagonist
# Description: as §1
# [6] = molecular target: platelet-derived growth factor receptor-β (Homo sapiens, UniProt P09619); conditions: compared with Dorsomorphin and LDN; cited from earlier work
# Chain of platelet-derived growth factor receptor-β (P09619 33-1106, species assumed): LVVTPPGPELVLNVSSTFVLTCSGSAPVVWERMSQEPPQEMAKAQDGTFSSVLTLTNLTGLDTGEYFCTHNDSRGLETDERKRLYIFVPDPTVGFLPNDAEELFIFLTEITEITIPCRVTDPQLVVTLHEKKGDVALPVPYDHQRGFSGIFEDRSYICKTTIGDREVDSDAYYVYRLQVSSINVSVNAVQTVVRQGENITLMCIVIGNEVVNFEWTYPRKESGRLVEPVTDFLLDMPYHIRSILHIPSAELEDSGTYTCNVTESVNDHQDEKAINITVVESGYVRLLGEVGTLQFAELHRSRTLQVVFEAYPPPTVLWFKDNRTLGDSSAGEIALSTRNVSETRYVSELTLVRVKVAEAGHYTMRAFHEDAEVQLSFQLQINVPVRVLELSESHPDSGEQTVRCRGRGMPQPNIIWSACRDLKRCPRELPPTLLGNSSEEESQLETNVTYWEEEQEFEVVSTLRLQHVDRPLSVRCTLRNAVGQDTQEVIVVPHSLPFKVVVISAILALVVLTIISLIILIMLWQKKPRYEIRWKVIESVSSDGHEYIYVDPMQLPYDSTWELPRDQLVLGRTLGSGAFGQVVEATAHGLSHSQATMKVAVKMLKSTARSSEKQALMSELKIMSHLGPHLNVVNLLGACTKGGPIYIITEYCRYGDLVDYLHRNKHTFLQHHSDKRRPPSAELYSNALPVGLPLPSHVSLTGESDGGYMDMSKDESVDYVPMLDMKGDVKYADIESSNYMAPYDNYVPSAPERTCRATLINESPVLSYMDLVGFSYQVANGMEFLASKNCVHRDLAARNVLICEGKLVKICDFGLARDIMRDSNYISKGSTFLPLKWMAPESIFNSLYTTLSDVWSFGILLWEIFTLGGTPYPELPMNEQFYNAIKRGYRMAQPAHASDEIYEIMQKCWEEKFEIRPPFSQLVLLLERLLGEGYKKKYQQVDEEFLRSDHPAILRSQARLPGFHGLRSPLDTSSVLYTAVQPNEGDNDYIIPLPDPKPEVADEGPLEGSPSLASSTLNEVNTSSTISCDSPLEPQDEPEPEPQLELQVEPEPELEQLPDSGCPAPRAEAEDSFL
# [7] = system: Id1, Id2, and Id3 expression; test: Quantitative RT-PCR for Id family members; format: cell-based; conditions: A549 and H1299 cell lines; 10 μM Dorsomorphin, 1 μM DMH1 or DMH2; 48 hours
# Description: Quantification of Gene Expression. RNA was extracted using the RNeasy kit as per the manufacturer's instructions (Qiagen, Valencia, Calif.). DNAase was used to remove any DNA contamination. cDNA was generated using Advantage RT for PCR kit (BD BiosciencesClontech, Palo Alto, Calif.). Quantitative PCR was performed with the Stratagene Mx3005p (Agilent Technologies) and predesigned validated Taq-Man gene expression assays according to the manufacturer's specifications (Applied Biosystems, Foster City, Calif.). Reference numbers used are: GAPDH (Hs99999905_m1), ACVRL1 (alk1) (Hs00163543_m1), ACVR1A (alk2) (Hs00153836_m1), BMR1A (alk3) (Hs00831730_s1), BMPR1B (alk6) (Hs00176144_m1), Id1 (Hs00357821_g1), Id2 (Hs00747379_m1), and Id3 (Hs00171409-m1). Negative control included all reagents except cDNA. Expression was normalized to GAPDH using the formula […].
# alk2 = molecular target: T2, alk2 (Mus musculus, UniProt P37172); conditions: reported [26]; cited from earlier work
# T2 construct: host or cells: C2C12
# T2 sequence (P37172 21-509): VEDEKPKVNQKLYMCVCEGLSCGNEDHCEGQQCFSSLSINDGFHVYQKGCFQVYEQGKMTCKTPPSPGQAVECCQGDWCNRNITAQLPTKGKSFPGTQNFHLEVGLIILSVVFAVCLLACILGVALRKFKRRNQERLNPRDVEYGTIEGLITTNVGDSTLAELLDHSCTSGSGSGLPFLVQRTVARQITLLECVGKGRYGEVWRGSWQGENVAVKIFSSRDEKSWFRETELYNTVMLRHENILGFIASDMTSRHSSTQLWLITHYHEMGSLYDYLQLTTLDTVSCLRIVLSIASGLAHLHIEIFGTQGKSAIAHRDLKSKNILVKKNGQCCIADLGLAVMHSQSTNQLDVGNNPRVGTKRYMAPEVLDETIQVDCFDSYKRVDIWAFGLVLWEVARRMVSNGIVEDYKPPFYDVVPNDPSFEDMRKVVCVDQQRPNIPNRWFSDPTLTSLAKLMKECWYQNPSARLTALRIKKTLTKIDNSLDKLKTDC
structure (smiles),measurement,setting,value
CN(C)CCCOc1ccc(-c2cnc3c(-c4ccnc5ccccc45)cnn3c2)cc1 [DMH2],inhibition of ca-alk3 activity (BRE-luciferase),[1],greater reduction of alk3 activity than DMH1 and LDN; also recorded: significant inhibition
same,activity for VEGF II (comparison),VEGF II,less activity
same,cell growth (number of cells),A549 cells,significantly more growth inhibition than DMH1
same,cell growth (number of cells),"H1299 cells [2]; H1299, DMEM 5% FCS, 10 μM Dorsomorphin or 1 μM DMH1, DMH2, LDN",significantly more growth inhibition than DMH1
same,cell growth (number of cells),"H1299 cells [2]; H1299 cultured in SFM, 1 μM",significant inhibition of cell growth
same,protein levels of Id1 and Id3,Id1 and Id3 protein; A549 and H1299 cells,decrease
same,reduction of Id1 protein expression (comparison),"Id1 and Id3 protein; H1299 and A549 cells, 1 μM",greater reduction of Id1 in H1299 cells compared to A549 cells; also recorded: greater reduction of Id1 protein expression than DMH1
same,proliferation (BrdU incorporation),H1299 cells [3]; 24 hours,dose dependent decrease in proliferation
same,proliferation (BrdU incorporation),H1299 cells [3]; 48 hours,more profound effect
same,Smad 1/5/8 activity (BRE-luciferase activity),Smad 1/5/8 activity,significant decrease
same,phosphorylated Smad 1/5/8 expression,[4]; A549 cells,decreases
same,level of phosphorylated Smad 1/5/8 expression,"[4]; lung cancer cell lines (H1299, A549)",decreased
same,inhibition of ca-alk6 activity (BRE-luciferase),[5],more inhibition of alk6 than DMH1 and LDN
same,activity for platelet-derived growth factor receptor-β (comparison),[6],less activity
same,"Id1, Id2, and Id3 expression (mRNA)",[7],significantly decreased
same,inhibition of alk2 activity,alk2,inhibit
